The record followed here is ChEMBL document CHEMBL5325477, “Biological Function of Pin1 in Vivo and Its Inhibitors for Preclinical Study: Early Development, Current Strategies, and Future Directions” (J Med Chem, 2023).

Assay [1] addresses T1, Peptidyl-prolyl cis-trans isomerase NIMA-interacting 1 (Homo sapiens, UniProt Q13526). Description: Inhibition of Gst-tagged human Pin1 assessed as inactivation constant measured after 14 hrs by FP binding assay.
Assay [2] concerns the target T1, Peptidyl-prolyl cis-trans isomerase NIMA-interacting 1. The assay is described as follows: Inhibition of Gst-tagged human Pin1 assessed as inhibition constant measured after 14 hrs by FP binding assay.

pKi: −log10 of the molar value.

T1 sequence (Q13526 whole entry): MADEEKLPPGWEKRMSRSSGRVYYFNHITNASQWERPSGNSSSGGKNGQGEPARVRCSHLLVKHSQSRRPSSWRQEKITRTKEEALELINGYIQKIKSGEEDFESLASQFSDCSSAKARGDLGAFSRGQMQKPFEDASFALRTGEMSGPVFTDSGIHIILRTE

In the case of `CC(C)(C)CN(C(=O)CCl)C1CCS(=O)(=O)C1` (configuration not stated), the Kinact in assay [1] was 0.3 10^-1/min. Also, the pKi in assay [2] was 6.15.
